Measurements published in patent US20100093642A1, “NOVEL POLYPEPTIDES” (priority 2006, published 2010).
pIC50: −log10 of the molar value. ≈ marks a conversion by molar mass, not a printed value. Like-named read-outs stand apart in the source and are kept apart here. No end group written: not given here.

How the values were obtained:
[1] = test system: human breast malignant carcinoma cell line MCF-7; format: cell-based; settings: 24 hours, maximum 200 μg/ml
Experimental: (§1) The cytotoxic effects of the peptides on different human tumour cells were measured using the MTT colorimetric assay (Mosmann, 1983). […] Dissolved MIT is converted to an insoluble purple formazan by cleavage of the tetrazolium ring by dehydrogenase enzymes. This water insoluble formazan can be solubilized using isopropanol or other solvents and the dissolved material is measured spectrophotometrically. The absorbance was measured as a function of concentration of converted dye. The conversion of the soluble dye to the insoluble purple formazan is utilized in assays for measurement of cell proliferation. […] We used this assay to measure the degree of cell death caused by the peptides. MCF-7 was maintained in EMEM, A2058 in DMEM and […]-29 in RPMI-1640 medium supplemented with 10% heat inactivated […] and 1% L-glutamine-L-alanine in a humidified atmosphere of 5% CO2 at 37° C. The human embryonic fibroblast cell line, MRC-5 (which is normal fibroblasts), was cultured as a monolayer in MEM medium, under the same conditions as described for the tumour cell lines. Cells to be used in the assay were grown to a minimum of 75% confluency, trypsinated and split to single cell suspension, counted and centrifuged at 1500 rpm for 10 min. The cell pellet was resuspended to a concentration of 2×10^5 cells/ml (HT-29) or 1×10^5 (MRC-5, MCF7 and A2058) in DMEM without FBS and L-glutamine-L-alanine (assay-medium). All cell lines were routinely tested for mycoplasma infection using a PCR-based mycoplasma detection kit (MycoSensor PCR Assay Kit, Stratagene), following the supplier's instructions. All cell lines were mycoplasma free. The cytotoxicity was measured using the MTT method (Mosmann, 1983), with minor modifications. Different human tumour cells (1-2×10^5) were applied in 96-well culture plates in a volume of 100 μl DMEM medium and incubated at 37° C. for 24 hours. The medium was removed and the cells were treated with 100 μl of peptide solution (concentrations ranging from 0 to 200 μg/ml), diluted in a) RPMI-1640 medium supplemented with 5% heat inactivated FBS, or b) RPMI-1640 medium without FBS. The plates were incubated at 37° C. for 24 hours. Cells treated with Triton X-100 (1%) was used as positive control (100% killing) whereas cells plus medium only were used as negative control. […] A volume of 70 μl of the supernatant was then removed and […] (0.04 M HCl in isopropanol) added to each well. The plate was placed on a shaker for 1 hour at room temperature and read spectrophotometrically at 590 nm in a microtiter plate reader (DTX880 Multimode Detector, Beckman Coulter).

[2] = test system: human colorectal adenocarcinoma cell line HT-29; format: cell-based; settings: 24 hours, maximum 200 μg/ml
Experimental: as §1

[3] = test system: human embryonic lung fibroblast cell line MRC-5; format: cell-based; settings: normal fibroblasts, 24 hours, maximum 200 μg/ml
Experimental: as §1

[4] = test system: human skin malignant melanoma cell line A2058; format: cell-based; settings: 24 hours, maximum 200 μg/ml
Experimental: as §1

[5] = test system: L. anguillarum; format: cell-based, Listonella (Vibrio) anguillarum; settings: lowest concentration causing optical density less than 50% of growth control
Experimental: (§2) The Gram-negative bacteria Listonella (Vibrio) anguillarum, serotype O2 (FT 1801, also coded as AL 104/LFI 6004), originally isolated from Atlantic salmon by staff of the Norwegian Veterinary Institute (Oslo, Norway), Escherichia con (ATCC 25922), and the Gram-positive bacteria Staphylococcus aureus (ATCC 9144) and Corynebacterium glutamicum (ATCC 13032) were used as test organisms. All isolates were grown at room temperature in Mueller Hinton Broth (MBB; Difco Laboratories, Detroit, U.S.A).
(§3) The antibacterial activities of the obtained HPLC fractions were determined by continuous monitoring of bacterial growth with a Bioscreen C microbiology reader (Labsystems Oy, Helsinki, Finland). The test was performed in 100-well flat-bottomed honeycomb plates, in which […] of test fractions were incubated with 50 μl of a suspension of an actively growing culture of bacteria diluted to a starting concentration of 5×10^3 cells per well. The growth chamber was maintained at 20° C. during the incubation period. The absorbance was measured at 2 h intervals for 48 h by a turbidometric method with vertical light photometry and a wide band filter (420-580 nm), which is more insensitive to colour change in the sample compared to single wavelength detection. Cecropin P1(0.5 μg/ml) was used as a positive control during these experiments. Antibacterial activity was determined when the optical density (OD) of the growth control (bacteria plus water) reached an absorbance of approximately 0.3. Fractions were regarded as active when the OD was less than 50% of the growth control.
(§4) The polypeptides of the present invention were isolated and subsequently tested for activity. A serial dilution method was employed to examine the antibacterial activity of the peptides. Two Gram-negative bacteria, L. anguillarum and E. coli, and two Gram-positive bacteria, C. glutamicum and S. aureus, were chosen as test bacteria. The polypeptides of the present invention were active against both Gram-positive and Gram-negative bacteria (table 4).

[6] = test system: E. coli; format: cell-based, Escherichia coli; settings: lowest concentration causing optical density less than 50% of growth control
Experimental: as §2, §3, §4

[7] = test system: C. glutamicum; format: cell-based, Corynebacterium glutamicum; settings: lowest concentration causing optical density less than 50% of growth control
Experimental: as §2, §3, §4

[8] = test system: S. aureus; format: cell-based, Staphylococcus aureus; settings: lowest concentration causing optical density less than 50% of growth control
Experimental: as §2, §3, §4

[9] = test system: Acinetobacter baumannilii, K15-9; format: cell-based; settings: clinical isolate; 37° C.; 3×10^6 cells per ml
Experimental: (§5) The antibacterial activities of the different peptides were determined by continuous monitoring of bacterial growth with a Bioscreen C microbiology reader (Labsystems Oy, Helsinki, Finland). The test was performed in 100-well flat-bottomed honeycomb plates, in which 50 μl of test fractions were incubated with 50 μl of a suspension of an actively growing culture of bacteria diluted in Mueller Hinton medium to a starting concentration of 3×10^4 cells per ml. The Gram-negative bacteria, Listonella (Vibrio) anguillarum, serotype O2 (FT 1801, a fish pathogenic strain), Pseudomonas aeruginosa and E. coli (ATCC 25922), and the Gram-positive bacteria, C. glutamicum (ATCC 13032) and S. aureus (ATCC 9144), were chosen as test bacteria. The growth chamber was maintained at either 20 or 37° C. during the incubation period. The absorbance was measured at 2 h intervals for 48 h by a turbidometric method with vertical light photometry and a wide band filter (420-580 nm), which is more insensitive to color change in the sample compared to single wavelength detection. Antibacterial activity was determined when the optical density (OD) of the growth control (bacteria plus water) reached an absorbance of 0.3-0.4. Fractions were regarded as active when the OD was less than 50% of the growth control. Polymyxin B (Sigma, St. Louis, Mo., USA), Lactoferricin B, Cecropin P1 and Hyalophora cecropia Cecropin B were used as reference.
(§6) The antimicrobial molecules were also tested against drug resistant clinical isolates, such as the commonly encountered multi-resistant human pathogen S. aureus (MRSA) K15-64 and the glycopeptide (vancomycin)-resistant Enterococccus faecium (GREF) K9-28. The non-clinical isolates Escherichia coli (ATCC 25922), Pseudomonas aeruginosa (ATCC 27853), Corynebacterium glutamicum (ATCC 13032), and Staphylococcus aureus (ATCC 9144) were also tested for comparison. Serial dilutions of synthetic peptides were made in double distilled water and tested according to the method described above. However, in these experiments the starting concentration of bacteria were 3×10^6 cells per ml and the temperature in the growth chamber was 37° C. Polymyxin B was used as positive control for the Gram-negative bacteria.

[10] = test system: Citrobacter freundii, K15-75; format: cell-based; settings: clinical isolate; 37° C.; 3×10^6 cells per ml
Experimental: as §5, §6

[11] = test system: Escherichia coli, K15-58; format: cell-based; settings: clinical isolate; 37° C.; 3×10^6 cells per ml
Experimental: as §5, §6

[12] = test system: Klebsiella K15-72; format: cell-based; settings: clinical isolate; 37° C.; 3×10^6 cells per ml
Experimental: as §5, §6

[13] = test system: Pseudomonas K15-60; format: cell-based; settings: clinical isolate; 37° C.; 3×10^6 cells per ml
Experimental: as §5, §6

[14] = test system: Salmonella K14-40; format: cell-based; settings: clinical isolate; 37° C.; 3×10^6 cells per ml
Experimental: as §5, §6

[15] = RPMI-1640 medium containing 5% FBS

| pIC50 ([4]; serum-free RPMI-1640 medium, read-out: Antitumoral activity IC50, A2058) | Compound | Antitumoral activity IC50, MCF-7 [1, 15] | Antitumoral activity IC50, MCF-7 ([1]; serum-free RPMI-1640 medium) | Antitumoral activity IC50, HT-29 [2, 15] | Antitumoral activity IC50, HT-29 ([2]; serum-free RPMI-1640 medium) | IC50, MRC-5 [3, 15] | pIC50 ([3]; serum-free RPMI-1640 medium, read-out: IC50, MRC-5) | Antitumoral activity IC50, A2058 [4, 15] | Minimal inhibitory concentration (MIC), L. anguillarum [5] [µM] | Minimal inhibitory concentration (MIC), E. coli [6] [µM] | Minimal inhibitory concentration (MIC), C. glutamicum [7] [µM] | Minimal inhibitory concentration (MIC), S. aureus [8] [µM] | Minimal inhibitory concentration, Acinetobacter baumannilii, K15-9 [9] [µM] | Minimal inhibitory concentration, Citrobacter freundii, K15-75 [10] [µM] | Minimal inhibitory concentration, Escherichia coli, K15-58 [11] [µM] | Minimal inhibitory concentration, Klebsiella K15-72 [12] [µM] | Minimal inhibitory concentration, Pseudomonas K15-60 [13] [µM] | Minimal inhibitory concentration, Salmonella K14-40 [14] [µM] |
| --- | --- | --- | --- | --- | --- | --- | --- | --- | --- | --- | --- | --- | --- | --- | --- | --- | --- | --- |
| 3.18 | NC(Cc1c[nH]c2cc(Br)ccc12)C(=O)O [6-D/L-Br-Trp, 6-Bromo-D/L-tryptophan, reference compound] | * (The symbol “*” denotes 30-50% killing at the highest concentration tested.) | * (The symbol “*” denotes 30-50% killing at the highest concentration tested.) | * (The symbol “*” denotes 30-50% killing at the highest concentration tested.) | * (The symbol “*” denotes 30-50% killing at the highest concentration tested.) | * (The symbol “*” denotes 30-50% killing at the highest concentration tested.) | 3.23 | * (The symbol “*” denotes 30-50% killing at the highest concentration tested.) |  |  |  |  |  |  |  |  |  |  |
|  | CC[C@H](C)[C@@H]1NC(=O)[C@H](CO)NC(=O)[C@@H]2CCCN2C(=O)[C@H](C)NC(=O)CNC(=O)[C@H](CC(C)C)NC(=O)[C@H](CCCCN)NC(=O)[C@H](CCCCN)NC(=O)[C@H](CCSC)NC(=O)[C@H](CCCNC(=N)N)NC(=O)[C@H](Cc2c[nH]c3ccccc23)NC(=O)[C@H](CCC(N)=O)NC(=O)[C@H](Cc2c[nH]c3ccccc23)NC(=O)[C@H](CCCNC(=N)N)NC(=O)[C@H](CCCNC(=N)N)NC(=O)[C@@H](NC(=O)[C@H](CCCCN)NC(=O)[C@@H](N)Cc2ccccc2)CSSC[C@@H](C(=O)N[C@H](C(=O)N[C@@H](CCCNC(=N)N)C(=O)N[C@@H](CCCNC(=N)N)C(=O)N[C@@H](C)C(=O)N[C@@H](Cc2ccccc2)C(=O)O)C(C)C)NC(=O)[C@H]([C@@H](C)O)NC1=O [Lactoferricin B] |  |  |  |  |  |  |  | 3.1 (≈ 9.68 µg/mL) | 3.1 (≈ 9.68 µg/mL) | 1.6 (≈ 5 µg/mL) | 6.3 (≈ 19.7 µg/mL) |  |  |  |  |  |  |
|  | P20: dimeric polypeptide from S. droebachiensis coelomocytes: first monomer SEQIDNO7, second monomer SEQIDNO8 (chain 1 SXFSRTVHNVGNAVRKGIHAGQGVCSGLGL; chain 2 DLRAICAGAHAL; not fully specified (bridges); X: residue not identified in the source; cysteine pairing not given here; also: heterodimer of two chains; listed as Strongylocentrotus droebachiensis) [Peptide P20] |  |  |  |  |  |  |  | 2.5 | 2.5 | 1.3 | 5.0 |  |  |  |  |  |  |
|  | Polymyxin B [reference compound] |  |  |  |  |  |  |  | 0.8 | 0.8 | 1.6 | 6.3 | 0.78 | 0.78 | 3.12 | 6.25 | 3.12 | 3.12 |
